# From ChEMBL document CHEMBL1121451, “Neuroleptic activity in 5-aryltetrahydro-gamma-carbolines” (J Med Chem, 1980)
# Columns and labels:
# Canis familiaris = assay: The ability of compound to prevent the emesis induced by apomorphine (0.1 mg/kg, iv) in dogs at the specified dosage of 3.2 mg/kg (sesame oil); format: functional, Canis lupus familiaris
# Rattus norvegicus [1] = assay: Tested for neuroleptic activity by measuring antagonism of d-amphetamine sulfate at intraperitoneal dosage of 5 mg/kg, after 24 hours in rat; format: functional; conditions: ip
# Rattus norvegicus [2] = assay: Tested for neuroleptic activity by measuring antagonism of d-amphetamine sulfate at intraperitoneal dosage of 5 mg/kg, after 5 hours in rat; format: functional; conditions: ip
# Rattus norvegicus [3] = species on record: Rattus norvegicus; assay: Inhibition of amphetamine induced stereotypy in rats; pretreated 1 hr before amphetamine.; format: functional
# Rattus norvegicus [4] = assay: Tested for neuroleptic activity by measuring antagonism of d-amphetamine sulfate at intraperitoneal dosage of 5 mg/kg, after 1 hour in rat; Range is 3.2-10; format: functional; conditions: ip
# Rattus norvegicus [5] = assay: Tested for neuroleptic activity by measuring antagonism of d-amphetamine sulfate at intraperitoneal dosage of 5 mg/kg, after 1 hour in rat; Range is 32-56; format: functional; conditions: ip
# Rattus norvegicus [6] = assay: Tested for neuroleptic activity by measuring antagonism of d-amphetamine sulfate at intraperitoneal dosage of 5 mg/kg, after 1 hour in rat; Range is 10-32; format: functional; conditions: ip
# Rattus norvegicus [7] = assay: Tested for neuroleptic activity by measuring antagonism of d-amphetamine sulfate at intraperitoneal dosage of 5 mg/kg, after 5 hours in rat; Range is 10-32; format: functional; conditions: ip
# Rattus norvegicus [8] = assay: Tested for neuroleptic activity by measuring antagonism of d-amphetamine sulfate at intraperitoneal dosage of 5 mg/kg, after 5 hours in rat; Range is 3.2-10; format: functional; conditions: ip
# Rattus norvegicus [9] = assay: Tested for neuroleptic activity by measuring antagonism of d-amphetamine sulfate at intraperitoneal dosage of 5 mg/kg, after 1 hour in rat; Range is 1.0-3.2; format: functional; conditions: ip
# Rattus norvegicus [10] = assay: Tested for neuroleptic activity by measuring antagonism of d-amphetamine sulfate at intraperitoneal dosage of 5 mg/kg, after 5 hours in rat; Range is 1.0-3.2; format: functional; conditions: ip
# Rattus norvegicus [11] = assay: Tested for neuroleptic activity by measuring antagonism of d-amphetamine sulfate at intraperitoneal dosage of 5 mg/kg, after 1 hour in rat; Range is 0.1-0.32; format: functional; conditions: ip
# Rattus norvegicus [12] = assay: Tested for neuroleptic activity by measuring antagonism of d-amphetamine sulfate at intraperitoneal dosage of 5 mg/kg, after 5 hours in rat; Range is 0.32-1.0; format: functional; conditions: ip
# Rattus norvegicus [13] = assay: Tested for neuroleptic activity by measuring antagonism of d-amphetamine sulfate at intraperitoneal dosage of 5 mg/kg, after 1 hour in rat; Range is 0.32-1.0; format: functional; conditions: ip
smiles,measurement,setting,value
CCCCCCCCCCCCCCCCCC(=O)OC(CCCN1CCc2c(c3cc(F)ccc3n2-c2ccc(F)cc2)C1)c1ccc(F)cc1 (stereo unspecified),Protection,Canis familiaris,0 days
Fc1ccc(C(=CCCN2CCc3c(c4cc(F)ccc4n3-c3ccc(F)cc3)C2)c2ccc(F)cc2)cc1,ED50,Rattus norvegicus [1],> 32 mg/kg
same,ED50,Rattus norvegicus [2],> 32 mg/kg
same,ED50,Rattus norvegicus [3],> 32 mg/kg
OC(CCCN1CCc2[nH]c3ccc(F)cc3c2C1)c1ccc(F)cc1 (stereo unspecified),ED50,Rattus norvegicus [4],3.2 mg/kg
same,ED50,Rattus norvegicus [1],> 10 mg/kg
same,ED50,Rattus norvegicus [2],> 10 mg/kg
CN1CCc2[nH]c3ccc(Cl)cc3c2C1,ED50,Rattus norvegicus [5],32 mg/kg
Cc1ccc(C(=O)CCCN2CCc3c(c4cc(F)ccc4n3-c3ccc(F)cc3)C2)cc1,ED50,Rattus norvegicus [2],> 10 mg/kg
same,ED50,Rattus norvegicus [3],> 10 mg/kg
OC(CCN1CCc2c(c3cc(F)ccc3n2-c2ccc(F)cc2)C1)c1ccc(F)cc1 (stereo unspecified),ED50,Rattus norvegicus [4],3.2 mg/kg
same,ED50,Rattus norvegicus [1],> 10 mg/kg
same,ED50,Rattus norvegicus [2],> 10 mg/kg
Cn1c2c(c3cc(F)ccc31)CN(CCCC(O)c1ccc(F)cc1)CC2 (stereo unspecified),ED50,Rattus norvegicus [6],10 mg/kg
same,ED50,Rattus norvegicus [1],> 32 mg/kg
same,ED50,Rattus norvegicus [7],10 mg/kg
Cn1c2c(c3cc(F)ccc31)CN(CCCC(=O)c1ccc(F)cc1)CC2,ED50,Rattus norvegicus [6],10 mg/kg
same,ED50,Rattus norvegicus [2],> 32 mg/kg
Cc1ccc2c(c1)c1c(n2-c2ccccc2)CCN(C)C1,ED50,Rattus norvegicus [6],10 mg/kg
same,ED50,Rattus norvegicus [1],> 32 mg/kg
same,ED50,Rattus norvegicus [2],> 32 mg/kg
CC(=O)OC(CCCN1CCc2c(c3cc(F)ccc3n2-c2ccc(F)cc2)C1)c1ccc(F)cc1 (stereo unspecified),Protection,Canis familiaris,0 days
OC(CCCN1CCc2c(c3cc(F)ccc3n2-c2ccc(F)cc2)C1)c1cccs1 (stereo unspecified),ED50,Rattus norvegicus [6],10 mg/kg
same,ED50,Rattus norvegicus [2],> 32 mg/kg
O=C(CCCN1CCc2[nH]c3ccc(F)cc3c2C1)c1ccc(F)cc1,ED50,Rattus norvegicus [8],3.2 mg/kg
same,ED50,Rattus norvegicus [9],1 mg/kg
same,ED50,Rattus norvegicus [1],> 32 mg/kg
CCOC(=O)N1CCc2c(c3cc(F)ccc3n2-c2ccc(F)cc2)C1,ED50,Rattus norvegicus [1],> 32 mg/kg
same,ED50,Rattus norvegicus [2],> 32 mg/kg
same,ED50,Rattus norvegicus [3],> 32 mg/kg
CN1CCc2c(c3cc(Cl)ccc3n2-c2ccc(F)cc2)C1.Cl,ED50,Rattus norvegicus [8],3.2 mg/kg
same,ED50,Rattus norvegicus [9],1 mg/kg
same,ED50,Rattus norvegicus [1],> 10 mg/kg
Cl.O=C(CCCN1CCc2c(c3cc(F)ccc3n2-c2cccc(C(F)(F)F)c2)C1)c1ccc(F)cc1,ED50,Rattus norvegicus [3],> 32 mg/kg
COc1ccc(-n2c3c(c4cc(F)ccc42)CN(CCCC(O)c2ccc(F)cc2)CC3)cc1.Cl (stereo unspecified),ED50,Rattus norvegicus [1],> 3.2 mg/kg
same,ED50,Rattus norvegicus [2],3.2 mg/kg
same,ED50,Rattus norvegicus [3],1 mg/kg
CN1CCc2c(c3cc(Cl)ccc3n2C)C1.Cl,ED50,Rattus norvegicus [5],32 mg/kg
CC(C)(C)CCN1CCc2c(c3cc(F)ccc3n2-c2ccc(F)cc2)C1.Cl,ED50,Rattus norvegicus [1],> 10 mg/kg
same,ED50,Rattus norvegicus [2],> 10 mg/kg
same,ED50,Rattus norvegicus [3],> 10 mg/kg
Cl.Fc1ccc(C(CCCN2CCc3c(c4cc(F)ccc4n3-c3ccc(F)cc3)C2)c2ccc(F)cc2)cc1,ED50,Rattus norvegicus [1],> 32 mg/kg
same,ED50,Rattus norvegicus [2],> 32 mg/kg
same,ED50,Rattus norvegicus [3],> 32 mg/kg
CN1CCc2c(c3cc(Br)ccc3n2-c2ccccc2)C1.Cl,ED50,Rattus norvegicus [4],3.2 mg/kg
Cl.Fc1ccc(/C=C/CCN2CCc3c(c4cc(F)ccc4n3-c3ccc(F)cc3)C2)cc1,ED50,Rattus norvegicus [4],3.2 mg/kg
same,ED50,Rattus norvegicus [1],> 3.2 mg/kg
same,ED50,Rattus norvegicus [10],1 mg/kg
Cl.O=C(CCCN1CCc2c(c3cc(F)ccc3n2-c2ccc(C(F)(F)F)cc2)C1)c1ccc(F)cc1,ED50,Rattus norvegicus [3],> 32 mg/kg
Cl.O=C(CCCCN1CCc2c(c3cc(F)ccc3n2-c2ccc(F)cc2)C1)c1ccc(F)cc1,ED50,Rattus norvegicus [1],> 32 mg/kg
same,ED50,Rattus norvegicus [2],> 32 mg/kg
same,ED50,Rattus norvegicus [3],> 32 mg/kg
CN1CCc2c(c3ccccc3n2-c2ccccc2)C1.Cl,ED50,Rattus norvegicus [6],10 mg/kg
same,ED50,Rattus norvegicus [1],> 32 mg/kg
Cl.OC(CCCN1CCc2c(c3cc(F)ccc3n2-c2cccc(C(F)(F)F)c2)C1)c1ccc(F)cc1 (stereo unspecified),ED50,Rattus norvegicus [2],> 32 mg/kg
same,ED50,Rattus norvegicus [3],> 32 mg/kg
Cl.O=C(CCCN1CCc2c(c3cc(F)ccc3n2-c2ccc(F)cc2)C1)c1ccccc1,ED50,Rattus norvegicus [6],10 mg/kg
same,ED50,Rattus norvegicus [7],10 mg/kg
Cl.O=C(CCCN1CCc2c(c3cc(F)ccc3n2-c2ccc(F)cc2)C1)c1ccc(Cl)cc1,ED50,Rattus norvegicus [8],3.2 mg/kg
same,ED50,Rattus norvegicus [4],3.2 mg/kg
Cl.OC(CCCN1CCc2c(c3cc(F)ccc3n2-c2ccc(F)cc2)C1)c1ccccc1F (stereo unspecified),ED50,Rattus norvegicus [1],> 3.2 mg/kg
same,ED50,Rattus norvegicus [11],0.1 mg/kg
same,ED50,Rattus norvegicus [10],1 mg/kg
Cl.O=C(CCCN1CCc2c(c3cc(F)ccc3n2-c2ccc(F)cc2)C1)c1cccc(F)c1,ED50,Rattus norvegicus [6],10 mg/kg
same,ED50,Rattus norvegicus [1],> 32 mg/kg
same,ED50,Rattus norvegicus [7],10 mg/kg
Cl.OC(CCCCN1CCc2c(c3cc(F)ccc3n2-c2ccc(F)cc2)C1)c1ccc(F)cc1 (stereo unspecified),ED50,Rattus norvegicus [9],1 mg/kg
same,ED50,Rattus norvegicus [1],> 3.2 mg/kg
same,ED50,Rattus norvegicus [10],1 mg/kg
CCN1CCc2c(c3cc(F)ccc3n2-c2ccc(F)cc2)C1.Cl,ED50,Rattus norvegicus [4],3.2 mg/kg
same,ED50,Rattus norvegicus [1],> 10 mg/kg
same,ED50,Rattus norvegicus [2],> 10 mg/kg
Cl.Cl.OC(CCCN1CCc2c(c3cc(F)ccc3n2-c2ccc(F)cc2)C1)c1cccnc1 (stereo unspecified),ED50,Rattus norvegicus [2],> 3.2 mg/kg
same,ED50,Rattus norvegicus [3],> 3.2 mg/kg
CCCN1CCc2c(c3cc(F)ccc3n2-c2ccc(F)cc2)C1.Cl,ED50,Rattus norvegicus [4],3.2 mg/kg
same,ED50,Rattus norvegicus [2],> 10 mg/kg
COc1ccc2c(c1)c1c(n2-c2ccc(F)cc2)CCN(C)C1.Cl,ED50,Rattus norvegicus [2],> 32 mg/kg
same,ED50,Rattus norvegicus [3],> 32 mg/kg
Cl.Fc1ccc(-n2c3c(c4cc(F)ccc42)CN(Cc2ccccc2)CC3)cc1,ED50,Rattus norvegicus [4],3.2 mg/kg
same,ED50,Rattus norvegicus [1],> 10 mg/kg
same,ED50,Rattus norvegicus [2],> 10 mg/kg
Cl.OC(CCCN1CCc2c(c3cc(F)ccc3n2-c2ccc(C(F)(F)F)cc2)C1)c1ccc(F)cc1 (stereo unspecified),ED50,Rattus norvegicus [6],10 mg/kg
same,ED50,Rattus norvegicus [7],10 mg/kg
CN1CCc2c(c3cc(Cl)ccc3n2-c2ccccc2)C1.Cl,ED50,Rattus norvegicus [4],3.2 mg/kg
same,ED50,Rattus norvegicus [1],> 32 mg/kg
same,ED50,Rattus norvegicus [7],10 mg/kg
Cl.OC(CCCN1CCc2c(c3cc(F)ccc3n2-c2ccc(F)cc2)C1)c1cccc(C(F)(F)F)c1 (stereo unspecified),ED50,Rattus norvegicus [2],> 10 mg/kg
same,ED50,Rattus norvegicus [3],> 10 mg/kg
COc1ccc(C(O)CCCN2CCc3c(c4cc(F)ccc4n3-c3ccc(F)cc3)C2)cc1.Cl (stereo unspecified),ED50,Rattus norvegicus [9],1 mg/kg
same,ED50,Rattus norvegicus [1],> 3.2 mg/kg
same,ED50,Rattus norvegicus [10],1 mg/kg
Cl.OC(CCCN1CCc2c(c3cc(F)ccc3n2-c2ccc(F)cc2)C1)c1ccc(Cl)c(C(F)(F)F)c1 (stereo unspecified),ED50,Rattus norvegicus [1],> 32 mg/kg
same,ED50,Rattus norvegicus [2],> 32 mg/kg
same,ED50,Rattus norvegicus [3],> 32 mg/kg
Cl.Fc1ccc(-n2c3c(c4cc(F)ccc42)CN(CCc2ccccc2)CC3)cc1,ED50,Rattus norvegicus [6],10 mg/kg
same,ED50,Rattus norvegicus [2],> 32 mg/kg
Cl.OC(CCCN1CCc2c(c3cc(F)ccc3n2-c2cccc(F)c2)C1)c1ccc(F)cc1 (stereo unspecified),ED50,Rattus norvegicus [4],3.2 mg/kg
same,ED50,Rattus norvegicus [2],> 10 mg/kg
CN1CCc2c(c3cc(F)ccc3n2-c2ccc(F)cc2)C1.Cl,ED50,Rattus norvegicus [8],3.2 mg/kg
same,ED50,Rattus norvegicus [9],1 mg/kg
same,ED50,Rattus norvegicus [1],> 10 mg/kg
COc1ccc(-n2c3c(c4cc(F)ccc42)CN(CCCC(=O)c2ccc(F)cc2)CC3)cc1.Cl,ED50,Rattus norvegicus [6],10 mg/kg
same,ED50,Rattus norvegicus [2],> 32 mg/kg
CN1CCc2c(c3cc(F)ccc3n2-c2ccccc2)C1.Cl,ED50,Rattus norvegicus [4],3.2 mg/kg
same,ED50,Rattus norvegicus [1],> 32 mg/kg
same,ED50,Rattus norvegicus [7],10 mg/kg
Cl.OC(CCCN1CCc2c(c3cc(F)ccc3n2-c2ccc(F)cc2)C1)c1ccccc1 (stereo unspecified),ED50,Rattus norvegicus [12],0.32 mg/kg
same,ED50,Rattus norvegicus [1],> 3.2 mg/kg
same,ED50,Rattus norvegicus [13],0.32 mg/kg
COc1ccc2c(c1)c1c(n2-c2ccccc2)CCN(C)C1.Cl,ED50,Rattus norvegicus [2],> 32 mg/kg
same,ED50,Rattus norvegicus [3],> 32 mg/kg
Cl.O=C(CCCN1CCc2c(c3cc(F)ccc3n2-c2ccc(F)cc2)C1)c1cccs1,ED50,Rattus norvegicus [6],10 mg/kg
same,ED50,Rattus norvegicus [2],> 32 mg/kg
Cc1ccc(C(O)CCCN2CCc3c(c4cc(F)ccc4n3-c3ccc(F)cc3)C2)cc1.Cl (stereo unspecified),ED50,Rattus norvegicus [1],> 10 mg/kg
same,ED50,Rattus norvegicus [11],0.1 mg/kg
same,ED50,Rattus norvegicus [10],1 mg/kg
Cl.OC(CCCN1CCc2c(c3cc(F)ccc3n2-c2ccccc2F)C1)c1ccc(F)cc1 (stereo unspecified),ED50,Rattus norvegicus [1],> 10 mg/kg
same,ED50,Rattus norvegicus [10],1 mg/kg
same,ED50,Rattus norvegicus [13],0.32 mg/kg
Cl.OC(CCCN1CCc2c(c3cc(F)ccc3n2-c2ccc(F)cc2)C1)c1ccc(Cl)cc1 (stereo unspecified),ED50,Rattus norvegicus [9],1 mg/kg
same,ED50,Rattus norvegicus [1],> 3.2 mg/kg
same,ED50,Rattus norvegicus [10],1 mg/kg
Fc1ccc(-n2c3c(c4cc(F)ccc42)CNCC3)cc1,ED50,Rattus norvegicus [6],10 mg/kg
CN1CCN(CC/C=C2/c3ccccc3Sc3ccc(S(=O)(=O)N(C)C)cc32)CC1 [THIOTHIXENE],ED50,Rattus norvegicus [12],0.32 mg/kg
same,ED50,Rattus norvegicus [1],> 17.8 mg/kg
same,ED50,Rattus norvegicus [13],0.32 mg/kg
